From patent publication US8829029B2, “Dual modulators of 5HT2A and D3 receptors” (Hoffmann-La Roche Inc., priority 2008, dated 2014) come the findings set out here.

Assay [1] has as its target human 5-HT2A serotonin receptor (Homo sapiens (Human), UniProt P28223). Put plainly: Radioligand binding ([3H]-ketanserin) to cloned human 5-HT2A receptor expressed in HEK-293 EBNA cells. As to conditions: membranes of transfected HEK-293 EBNA cells, 1.1 nM [3H]-ketanserin, 1 h at RT. Summed up: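 Membranes from transiently transfected HEK-293 EBNA cells incubated 1 h at RT with 1.1 nM [3H]-ketanserin (5-HT2A, 15 μg protein/well, Tris/MgCl2/EGTA pH 7.4) or 0.5 nM [3H]-spiperone (D3, 7.5 μg/well, Tris/NaCl/MgCl2/KCl/CaCl2 pH 7.4) plus test compound at 10 μM-0.1 nM. Nonspecific binding with 10 μM spiperone; filtration, Ki via Cheng-Prusoff.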

The target of assay [2] is human D3 dopamine receptor (Homo sapiens (Human), UniProt P35462). As to the kind of experiment: Radioligand binding ([3H]-spiperone) to cloned human D3 receptor expressed in HEK-293 EBNA cells. The conditions noted are these: membranes of transfected HEK-293 EBNA cells, 0.5 nM [3H]-spiperone, 1 h at RT. The method in brief:
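Membranes from HEK-293 EBNA cells transiently transfected with human D3 receptor, incubated 1 h at RT with ~0.5 nM [3H]-spiperone and ten compound concentrations (10 μM-0.1 nM); nonspecific binding with 10 μM spiperone. Filtered, scintillation counted; IC50 from four-parameter fit, Ki via Cheng-Prusoff using saturation Kd.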

pKi: −log10 of the molar value.

human D3 dopamine receptor, sequence (P35462 whole entry): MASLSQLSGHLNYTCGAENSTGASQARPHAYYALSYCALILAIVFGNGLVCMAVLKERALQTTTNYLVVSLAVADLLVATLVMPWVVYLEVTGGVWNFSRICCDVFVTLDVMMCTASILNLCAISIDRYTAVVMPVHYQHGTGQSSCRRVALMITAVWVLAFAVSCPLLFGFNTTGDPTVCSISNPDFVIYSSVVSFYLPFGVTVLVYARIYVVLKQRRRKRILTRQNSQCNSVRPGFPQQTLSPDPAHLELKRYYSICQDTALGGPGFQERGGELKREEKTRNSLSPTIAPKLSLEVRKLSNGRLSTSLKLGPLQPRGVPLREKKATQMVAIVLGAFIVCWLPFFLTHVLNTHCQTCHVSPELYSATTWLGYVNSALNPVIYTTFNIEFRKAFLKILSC

Turning to `O=C(CC1CCCO1)N[C@H]1CC[C@H](CCN2CCC(c3noc4cc(Cl)c(F)cc34)CC2)CC1` (stereo partly drawn) [Example 61, N-trans-(4-{2-[4-(6-Chloro-5-fluoro-benzo[d]isoxazol-3-yl)-piperidin-1-yl]-ethyl}-cyclohexyl)-2-(tetrahydro-furan-2-yl)-acetamide], the results for the pKi in assay [1] and in assay [2] were 7.51 and 7.75, respectively.
For `COCC(=O)N[C@H]1CC[C@H](CCN2CCC(c3noc4cc(F)c(F)cc34)CC2)CC1` [Example 62, N-trans-(4-{2-[4-(5,6-Difluoro-benzo[d]isoxazol-3-yl)-piperidin-1-yl]-ethyl}-cyclohexyl)-2-methoxy-acetamide] the same measures were 7.98 and 7.49.
For `CO[C@@H]1CC[C@@H](CC(=O)N[C@H]2CC[C@H](CCN3CCC(c4noc5cc(F)c(F)cc45)CC3)CC2)C1` [Example 63, N-trans-(4-{2-[4-(5,6-Difluoro-benzo[d]isoxazol-3-yl)-piperidin-1-yl]-ethyl}-cyclohexyl)-2-((1R,3R)-3-methoxy-cyclopentyl)-acetamide], the pKi in assay [1] was 7.88; in assay [2] it was 7.70.
In the case of `CO[C@H]1CC[C@H](CC(=O)N[C@H]2CC[C@H](CCN3CCC(c4noc5cc(F)c(F)cc45)CC3)CC2)CC1` [Example 64, N-trans-(4-{2-[4-(5,6-Difluoro-benzo[d]isoxazol-3-yl)-piperidin-1-yl]-ethyl}-cyclohexyl)-2-(4-methoxy-cyclohexyl)-acetamide], the pKi in assay [1] is 8.12; in assay [2], 7.76.
For the compound `COCCC(=O)N[C@H]1CC[C@H](CCN2CCC(c3noc4cc(F)c(F)cc34)CC2)CC1` [Example 65, N-trans-(4-{2-[4-(5,6-Difluoro-benzo[d]isoxazol-3-yl)-piperidin-1-yl]-ethyl}-cyclohexyl)-3-methoxy-propionamide], the pKi is 7.89 in assay [1] and 7.94 in assay [2].
Regarding `CC(=O)N[C@H]1CC[C@H](CCN2CCC(c3noc4cc(F)c(F)cc34)CC2)CC1` [Example 66, N-trans-(4-{2-[4-(5,6-Difluoro-benzo[d]isoxazol-3-yl)-piperidin-1-yl]-ethyl}-cyclohexyl)-acetamide], the pKi was 7.75 in assay [1] and 7.94 in assay [2].
With `O=C(CO)N[C@H]1CC[C@H](CCN2CCC(c3noc4cc(F)c(F)cc34)CC2)CC1` [Example 67, N-trans-(4-{2-[4-(5,6-Difluoro-benzo[d]isoxazol-3-yl)-piperidin-1-yl]-ethyl}-cyclohexyl)-2-hydroxy-acetamide], the pKi in assay [1] is 7.93; in assay [2], 7.70.
For `O=C(CCO)N[C@H]1CC[C@H](CCN2CCC(c3noc4cc(F)c(F)cc34)CC2)CC1` [Example 68, N-trans-(4-{2-[4-(5,6-Difluoro-benzo[d]isoxazol-3-yl)-piperidin-1-yl]-ethyl}-cyclohexyl)-3-hydroxy-propionamide] the same measures were 7.61 and 7.93.
Consider `O=C(C[C@H]1CC[C@H](O)CC1)N[C@H]1CC[C@H](CCN2CCC(c3noc4cc(F)c(F)cc34)CC2)CC1` [Example 69, N-trans-(4-{2-[4-(5,6-Difluoro-benzo[d]isoxazol-3-yl)-piperidin-1-yl]-ethyl}-cyclohexyl)-2-(4-hydroxy-cyclohexyl)-acetamide], for which the pKi is 8.11 in assay [1] and 7.68 in assay [2].
On to `O=C(C[C@@H]1CC[C@@H](O)C1)N[C@H]1CC[C@H](CCN2CCC(c3noc4cc(F)c(F)cc34)CC2)CC1` [Example 70, N-trans-(4-{2-[4-(5,6-Difluoro-benzo[d]isoxazol-3-yl)-piperidin-1-yl]-ethyl}-cyclohexyl)-2-((1R,3R)-3-hydroxy-cyclopentyl)-acetamide], for which the pKi in assay [1] was 7.94; in assay [2], 7.70.
Turning to `O=C(N[C@H]1CC[C@H](CCN2CCC(c3noc4cc(F)c(F)cc34)CC2)CC1)C1CCOCC1` [Example 71, Tetrahydro-pyran-4-carboxylic acid trans-(4-{2-[4-(5,6-difluoro-benzo[d]isoxazol-3-yl)-piperidin-1-yl]-ethyl}-cyclohexyl)-amide], the pKi in assay [1] was 8.10; in assay [2], 7.74.
As for `O=C(CC1OCCCO1)N[C@H]1CC[C@H](CCN2CCC(c3noc4cc(F)c(F)cc34)CC2)CC1` [Example 72, N-trans-(4-{2-[4-(5,6-Difluoro-benzo[d]isoxazol-3-yl)-piperidin-1-yl]-ethyl}-cyclohexyl)-2-[1,3]dioxan-2-yl-acetamide], the figures for the pKi in assay [1] and in assay [2] were 8.03 and 7.87, respectively.
For `CC(=O)N[C@H]1CC[C@H](CCN2CCC(c3noc4cc(C)ccc34)CC2)CC1` [Example 73, N-trans-(4-{2-[4-(6-Methyl-benzo[d]isoxazol-3-yl)-piperidin-1-yl]-ethyl}-cyclohexyl)-acetamide] the same measures were 7.78 and 8.03.
Take “N-trans-(4-{2-[4-(6-Chloro-benzo[d]isoxazol-3-yl)-piperidin-1-yl]-ethyl}-cyclohexyl)-2-trans (4-methoxy-cyclohexyl)-acetamide [Example 35]”: the pKi is 8.02 in assay [1] and 7.94 in assay [2].

One may read the pKi as the Ki on a negative log10 scale, so that one unit is a factor of ten.
